Ends that are not written are not given here.
Format: physicochemical
Protocol: Fig 4 Hydrophobicity and solubility of TP4 in the presence of sarkosyl and LPS. (A) ANS emission spectrum of TP4 in solution containing sarkosyl. TP4 (4 μg) was dissolved in 200 μl of 10 mM sodium phosphate, pH7.4, 0.1 M NaCl, containing various concentrations of sarkosyl (0.075%, w/v, designated as 1x). (B) ANS emission spectrum of TP4 in solution containing LPS. TP4 (4 μg) was dissolved in 200 μl of 10 mM sodium phosphate, pH7.4, containing various amounts of LPS as indicated. ANS was added stepwise to the final concentrations as indicated (lines 1 to 6 at 0, 10, 20, 30, 40 and 50 μM, respectively). Arrows indicate the emission maximum at 470 nm or 520 nm for bound- and free-form ANS, respectively. (C, D) Solubility of TP4 in solution containing either sarkosyl or LPS. TP4 (4 μg) dissolved in 200 μl of respective solution containing sarkosyl or LPS at concentration as indicated was spun at 14,000 x g for 15 min and analyzed by SDS-PAGE/Coomassie blue staining.
Fig 9 OprI-binding ability of TP4-derived peptides. (A) Competition for OprI binding by TP4-derived peptides. […] The gel pellet was analyzed by non-reducing SDS-PAGE/Coomassie blue staining. rOprI, recombinant OprI; S.t, Streptavidin. […] TP4-derived peptides (6 μg each) dissolved in 1x sarkosyl buffer (300 μl) were incubated at 37°C for 10 min, then spun at 14,000 x g for 15 min and analyzed by SDS-PAGE/Coomassie blue staining. […]

For FIHHIIGGLFSAGKAIHRLIRRRRR [TP4], the “solubility of TP4 in 1x Sar” value was “less than 80 μM”.
